This is an account of results in patent US4469704A, “2,3-Butanediol diester derivatives, process for producing the same, and an antiulcer drug containing the same” (SS Pharmaceutical Co., Ltd., priority 1980, dated 1984).

The test system of series [1] is ulcer. The series can be described thus: Antiulcer action: inhibition of indomethacin-induced gastric ulcer (ulcer index) in rats. In kind it is in vivo, Wister male rats. As to conditions: Rattus norvegicus, 1 h before indomethacin (25 mg/kg orally), read-out: Inhibition ratio. The method, then:
Wister male rats each weighing about 200 g were given, after fasting for 24 hours, orally 25 mg/kg of indomethacin suspended in 1% aq. solution of sodium carboxymethylcellulose. Five hours later, 1 ml of physiological saline containing 2% brilliant blue was injected intravenously on their tails, and 10 minutes later, they were slaughtered and their stomachs were removed. After fixation by injecting 12 ml of 1% formalin aq. solution, the stomachs were extended on a flat plate and the injured parts on the stomach was measured with slide calipers. The sum of the lengths in mm was regarded as the ulcer index.
The test compound was emulsified or suspended in physiological saline containing one drop of polysolvate 80, and this was given orally or subcutaneously on the back one hour before administration of indomethacin.
The ulcer inhibition ratio was obtained from the following formula.
Inhibition ratio (%)=A/B×100
A: (ulcer index of control group)--(ulcer index of test group given the test compound)
B: (ulcer index of control group)

Series [2] can be described thus: Acute toxicity, intraperitoneal, 7 days observation. The series is classed as in vivo. As to conditions: mouse, ip; ddy male mice, intraperitoneally, dissolved in cotton seed oil, observation for seven days. As to the method: (§1) ddy male mice, arranged in groups each consisting of five mice, were given intraperitoneally 1000 mg/kg of the test compounds Nos. 1-4, 8-10, 14-18, 21, 22, 24, 25, 28, 31, 34, 35, 37, 45, 46, 48, 54, 57, 60, 62, 64, 68, 70, and 71 (as shown in Table 1) dissolved in cotton seed oil.

Series [3] has as its system ddy male mice. The series is described as above. In kind it is in vivo. As to conditions: 1000 mg/kg intraperitoneally, groups of five ddy male mice. The method, then:
as §1

Series [4] relates to tumor. As to conditions: Japanese Patent Publication No. 36-13349; cited from earlier work.

Where two headings read alike, the source gives them in different places.

Turning to `CCCCCCCC(=O)OC(C)C(C)OC(=O)CCCCCCC` (centres unmarked) [Compound No. 1], the inhibition in vivo at 200 mg/kg in series [1] (sc, subcutaneously, 5 rats) came to 92%.
The same measure, in the same setting: the same measure for `CCCCCCCCC(=O)OC(C)C(C)OC(=O)CCCCCCCC` (centres unmarked) [Compound No. 2]: 90%; for `CCCCCCCCCC(=O)OC(C)C(C)OC(=O)CCCCCCCCC` (centres unmarked) [Compound No. 3]: 50%; for `CCCCCCCCCCC(=O)OC(C)C(C)OC(=O)CCCCCCCCCC` (centres unmarked) [Compound No. 4]: 74%.
Still for that read-out and setting: the figure for `CCCCCCCCCCCCCC(=O)OC(C)C(C)OC(=O)CCCCCCCCCCCCC` (centres unmarked) [Compound No. 6] is 57%.
On the same count and under the same terms, the figure for `CCCCCCCCCCCCCCCC(=O)OC(C)C(C)OC(=O)CCCCCCCCCCCCCCC` (centres unmarked) [Compound No. 7] is 30%.
Turning to `CCCCCC(=O)OC(C)C(C)OC(=O)C=Cc1ccccc1` (centres unmarked) [Compound No. 22], the inhibition in vivo at 200 mg/kg in series [1] (sc, subcutaneously, 5 rats) was found to be 91%. Also, in series [2], the LD50 at 168 h is above 1000 mg/kg. In addition, the “survival / anomaly after seven days” value in series [3] was “all the mice lived without any anomaly”.
Turning to `CCCCCCCCCC(=O)OC(C)C(C)OC(=O)C=Cc1ccccc1` (centres unmarked) [Compound No. 25], in series [1] (sc, subcutaneously, 5 rats), the inhibition in vivo at 200 mg/kg is 95%. Besides, the LD50 at 168 h in series [2] was above 1000 mg/kg. Also, in series [3], the “survival / anomaly after seven days” value is “all the mice lived without any anomaly”.
The like results for `CCCCCC(=O)OC(C)C(C)OC(=O)C=Cc1ccc(C)cc1` (centres unmarked) [Compound No. 31] were, in that order, 91%, above 1000 mg/kg and “all the mice lived without any anomaly”.
As for `CCCCCCCCCCC(=O)OC(C)C(C)OC(=O)C=Cc1ccc(OC)cc1` (centres unmarked) [Compound No. 35], the inhibition in vivo at 200 mg/kg in series [1] (sc, subcutaneously, 5 rats) came to 77%. In series [2], the LD50 at 168 h was above 1000 mg/kg. The “survival / anomaly after seven days” value in series [3] was “all the mice lived without any anomaly”.
Turning to `CCCCCCCCCCC(=O)OC(C)C(C)OC(=O)C=Cc1cc(OC)c(OC)c(OC)c1` (centres unmarked) [Compound No. 40], in series [1] (sc, subcutaneously, 5 rats), the inhibition in vivo at 200 mg/kg turned out to be 99%.
Turning to `CCCCCC(=O)OC(C)C(C)OC(=O)c1cc(OC)c(OC)c(OC)c1` (centres unmarked) [Compound No. 62], the inhibition in vivo at 200 mg/kg in series [1] (sc, subcutaneously, 5 rats) is 50%. In addition, in series [2], the LD50 at 168 h is above 1000 mg/kg. In addition, the “survival / anomaly after seven days” value in series [3] is “all the mice lived without any anomaly”.
The like results for `CCCCCCCCCCC(=O)OC(C)C(C)OC(=O)c1cc(OC)c(OC)c(OC)c1` (centres unmarked) [Compound No. 68] were, in that order, 89.3%, above 1000 mg/kg and “all the mice lived without any anomaly”.
`CCCCCCCCCCC(=O)OC(C)C(C)OC(=O)CCc1ccccc1` (centres unmarked) [Compound No. 70]: in series [1] (sc, subcutaneously, 5 rats), the inhibition in vivo at 200 mg/kg turned out to be 45.9%. For the same molecule, the LD50 at 168 h in series [2] is above 1000 mg/kg. Moreover, the “survival / anomaly after seven days” value in series [3] was “all the mice lived without any anomaly”.
The matching figures for `CCCCCCCCCCC(=O)OC(C)C(C)OC(=O)COc1ccccc1` (centres unmarked) [Compound No. 71]: 59.2%, above 1000 mg/kg and “all the mice lived without any anomaly”.
As for `CCCCCC=CCC=CCCCCCCCC(=O)OC(C)C(C)OC(=O)CCCCCCCC=CCC=CCCCCC` (centres unmarked) [compound 15], the inhibition in vivo at 200 mg/kg in series [1] (sc, subcutaneously, 5 rats) was 47%.
On the same count and under the same terms, the same measure for `CCC=CCC=CCC=CCCCCCCCC(=O)OC(C)C(C)OC(=O)CCCCCCCC=CCC=CCC=CCC` (centres unmarked) [compound 16]: 86%; for `CCCCCCCCCCC(=O)OC(C)C(C)OC(=O)CCCCC` (centres unmarked) [compound 17]: 37%.
The molecule `CCCCCCCC/C=C\CCCCCCCC(=O)OC(C)C(C)OC(=O)CCCCCCCCCC` (centres unmarked) [compound 21] registered an LD50 at 168 h in series [2] above 1000 mg/kg. Moreover, the “survival / anomaly after seven days” value in series [3] is given as “all the mice lived without any anomaly”.
With `CCCCCCCCC(=O)OC(C)C(C)OC(=O)C=Cc1ccccc1` (centres unmarked) [compound 24], in series [1] (sc, subcutaneously, 5 rats), the inhibition in vivo at 200 mg/kg came out at 90%. Further, the LD50 at 168 h in series [2] was above 1000 mg/kg. Further, in series [3], the “survival / anomaly after seven days” value is “all the mice lived without any anomaly”.
The matching figures for `C=CCCCCCCCCC(=O)OC(C)C(C)OC(=O)C=Cc1ccccc1` (centres unmarked) [compound 28]: 62%, above 1000 mg/kg and “all the mice lived without any anomaly”.
The like results for `CCCCCC(=O)OC(C)C(C)OC(=O)C=Cc1ccc(OC)cc1` (centres unmarked) [compound 34] were, in that order, 75%, above 1000 mg/kg and “all the mice lived without any anomaly”.
The matching figures for `CCCCCC(=O)OC(C)C(C)OC(=O)C=Cc1ccc(Cl)cc1` (centres unmarked) [compound 37]: 85%, above 1000 mg/kg and “all the mice lived without any anomaly”.
`CCCCCCCC(=O)OC(C)C(C)OC(=O)C(C#N)=Cc1ccccc1` (centres unmarked) [compound 45]: the inhibition in vivo at 200 mg/kg in series [1] (sc, subcutaneously, 5 rats) is 84%. Further, the LD50 at 168 h in series [2] was above 1000 mg/kg. Further, the “survival / anomaly after seven days” value in series [3] is on record as “all the mice lived without any anomaly”.
`CCCCCCCCC(=O)OC(C)C(C)OC(=O)C(C#N)=Cc1ccccc1` (centres unmarked) [compound 46]: the inhibition in vivo at 200 mg/kg in series [1] (sc, subcutaneously, 5 rats) turned out to be 56%. Further, the LD50 at 168 h in series [2] is above 1000 mg/kg. For the same molecule, the “survival / anomaly after seven days” value in series [3] is “all the mice lived without any anomaly”.
Regarding `CCCCCCCCCCC(=O)OC(C)C(C)OC(=O)C(C#N)=Cc1ccccc1` (centres unmarked) [compound 48], in series [1] (po, orally, 4 rats), the inhibition in vivo at 200 mg/kg amounted to 84%. Moreover, the inhibition in vivo at 300 mg/kg in series [1] (sc, 300 mg/kg, subcutaneously, 5 rats) stood at 96%. The molecule also gave an LD50 at 168 h in series [2] above 1000 mg/kg. The “survival / anomaly after seven days” value in series [3] is listed as “all the mice lived without any anomaly”.
In the case of `CCCCCC(=O)OC(C)C(C)OC(=O)C(C)=Cc1ccccc1` (centres unmarked) [compound 54], the inhibition in vivo at 200 mg/kg in series [1] (sc, subcutaneously, 5 rats) stood at 87%. Besides, the LD50 at 168 h in series [2] is above 1000 mg/kg. The “survival / anomaly after seven days” value in series [3] is “all the mice lived without any anomaly”.
The matching figures for `CC(=Cc1ccccc1)C(=O)OC(C)C(C)OC(=O)C(C)=Cc1ccccc1` (centres unmarked) [compound 57]: 80%, above 1000 mg/kg and “all the mice lived without any anomaly”.
The like results for `CCCCCC(=O)OC(C)C(C)OC(=O)c1ccc(OC)cc1` (centres unmarked) [compound 60] were, in that order, 41.4%, above 1000 mg/kg and “all the mice lived without any anomaly”.
The like results for `CCCCCCCCCCC(=O)OC(C)C(C)OC(=O)c1ccccc1` (centres unmarked) [compound 64] were, in that order, 41.3%, above 1000 mg/kg and “all the mice lived without any anomaly”.
Turning to coixenolide, the antitumor effect result in series [4] is “has an antitumor effect”.
